Reference: patent publication US11793746B2, “Intense skin hydration systems and methods” (priority 2020, dated 2023)

How the values were obtained:
photodamaged human skin [1] = assay: Pilot open label study on photoaged skin: epidermal thickness by high frequency ultrasound; format: in vivo; conditions: for % change (epidermal thickness, ultrasound): range over panelists
Protocol: (§1) A pilot open label study was conducted to establish the efficacy of GC-100 on photoaged skin in a clinical setting.
(§2) Primary endpoints for this study were as follows: • 1. Epidermal skin thickness was measured using high frequency ultrasound. • 2. Panelists regard for their overall appearance and any changes noted in the appearance of their wrinkles, lentigines, facial acne and pore size were used in qualitative analysis. In addition, panelists were asked to comment on irritation, novel rashes, and other side effects during the study period.
(§3) An open label, six week pilot study to examiner the regenerative effect of GC-100 was performed on 15 women with mild to moderate dermatoheliosis as defined by clinical examination. Exclusion criteria selected against patients with a history of retinoic acid use, dermabrasion, or chemical peel application within 6 months prior to study onset. However, all patients had used one or more of these products previously. After appropriate informed consent was obtained, baseline measurements of epidermal thickness using high frequency untrasonography (20 MHz and above) were collected using skin at the infraorbital prominence. Three measurements were taken at each site and averaged to yield a result. GC-100 was applied to the face and neck according to the following schedule: • Weekly: GC-100 applied in mask vehicle • Twice daily: GC-100 applied through lotion vehicle
(§4) The patient population was divided into two groups, where Group I was evaluated after 24 hours of product application, and Group II was evaluated at the conclusion of weeks 2, 4 and 6. A panelist questionnaire was completed during each evaluation session.

photodamaged human skin [2] = assay: Pilot open label study on photoaged skin: panelist questionnaire and side effects; format: in vivo
Protocol: as §1, §2, §3, §4

lysyl oxidase = assay: Lysyl oxidase activity in wound-margin biopsies after surgical and xylene injury; format: in vivo, nude mice
Protocol: The dermotrophic effect of GC-100 was also determined using lysyl oxidase levels as an endpoint to determine whether GC-100 can effect the concentration of lysyl oxidase in wounded tissues and to establish whether GC-100 can accelerate the wound healing process using qualitative measurements.
Nude mice were chosen because their skin (and their lack of hair) is more similar to human skin than are other commonly used laboratory test animals. The test population was divided into 4 groups of 10 nude mice for the purpose of examining the best application sequence for GC-100 relative to injury. Group definitions are as follows:
A surgical wound measuring 2.54 cm in length and penetrating the dermis was made on the right hind quarter of all test subjects after appropriate anesthesia was administered.
A second index of injury using 1% xylene was used in all test subjects after creation of the surgical wound. Using a sterile tuberculin syringe, 0.1 mL of a 1% xylene solution was injected subcutaneously into the region of the surgical wound. The final size of the injury measured 25×20 mm^2.
The mice in Groups II, III, and IV were divided randomly after physical and chemical injury into 2 subgroups of 5 mice each for application of either GC-100 0.5% or 1%. Pretreatment for Group II and IV mice was conducted one hour prior to any injury, where GC-100 0.5% and 1% was rubbed into the right hind quarter of the designated mice for 50 cycles using a nylon glove. Post-treatment for mice in Group III and IV with GC-100 0.5% and 1% was conducted immediately after injury.
Wound recovery was determined over 30 days using cutaneous punch biopsies that were taken on post injury day 4, and at the conclusion of weeks 2, 3, and 4 from the wound margins. Biopsy specimens were analyzed for lysyl oxidase activity using a standard assay. Results are shown in Table 3 and FIG. 6, which is a graph showing percent lysyl oxidase as a function of treatment schedule and GC-100 concentration.

[3] = Group I, evaluated after 24 hours of product application
[4] = Group II, evaluated at weeks 2, 4 and 6

Question: What does the source list for H-Lys-Pro-NH2 [GC-100]?
Answer: Mean % (change in epidermal thickness) (photodamaged human skin [1]; [3]): 8.5%; % change (epidermal thickness, ultrasound) (photodamaged human skin [1]; [3]): 3.4-19.2%; Mean % (change in epidermal thickness) (photodamaged human skin [1]; [4]): 7.95%; % change (epidermal thickness, ultrasound) (photodamaged human skin [1]; [4]): 2.9-14%; stratum corneum compaction spongiosis, granular cell layer thickness and epidermal thickness vs baseline (photodamaged human skin [1]; both treatment groups, high frequency ultrasound): significant increase over baseline; average increase in epidermal thickness (photodamaged human skin [1]; six weeks after application): 8%; Incidence of side effects (photodamaged human skin [2]; panelist questionnaire): 0%; Positive response: Decreased appearance of lentigines (photodamaged human skin [2]; panelist questionnaire): 54%; Positive response: Decreased appearance of pores (photodamaged human skin [2]; panelist questionnaire): 92%; Positive response: Decreased appearance of wrinkles (photodamaged human skin [2]; panelist questionnaire): 62%; Positive response: Decreased incidence of blemishes (photodamaged human skin [2]; panelist questionnaire): 92%; Positive response: Improved overall cosmetic appearance (photodamaged human skin [2]; panelist questionnaire): 92%; clinical irritation during the study (photodamaged human skin [2]; six week study, face and neck): No clinically detectable irritation; % lysyl oxidase (lysyl oxidase; Group II pretreatment, 0.5% GC-100, Day 4): 1.4%; % lysyl oxidase (lysyl oxidase; Group II pretreatment, 0.5% GC-100, Week 2): 10.2%; % lysyl oxidase (lysyl oxidase; Group II pretreatment, 0.5% GC-100, Week 3): 13.4%; % lysyl oxidase (lysyl oxidase; Group II pretreatment, 0.5% GC-100, Week 4): 45.9%; % lysyl oxidase (lysyl oxidase; Group II pretreatment, 1% GC-100, Day 4): 5.2%; % lysyl oxidase (lysyl oxidase; Group II pretreatment, 1% GC-100, Week 2): 18.2%; % lysyl oxidase (lysyl oxidase; Group II pretreatment, 1% GC-100, Week 3): 23.4%; % lysyl oxidase (lysyl oxidase; Group II pretreatment, 1% GC-100, Week 4): 45.9%; % lysyl oxidase (lysyl oxidase; Group III post-treatment, 0.5% GC-100, Day 4): 1.2%; % lysyl oxidase (lysyl oxidase; Group III post-treatment, 0.5% GC-100, Week 2): 3.2%; % lysyl oxidase (lysyl oxidase; Group III post-treatment, 0.5% GC-100, Week 3): 19.8%; % lysyl oxidase (lysyl oxidase; Group III post-treatment, 0.5% GC-100, Week 4): 48.7%; % lysyl oxidase (lysyl oxidase; Group III post-treatment, 1% GC-100, Day 4): 5.3%; % lysyl oxidase (lysyl oxidase; Group III post-treatment, 1% GC-100, Week 2): 11.5%; % lysyl oxidase (lysyl oxidase; Group III post-treatment, 1% GC-100, Week 3): 19.7%; % lysyl oxidase (lysyl oxidase; Group III post-treatment, 1% GC-100, Week 4): 49.6%; % lysyl oxidase (lysyl oxidase; Group IV pre- & post-treatment, 0.5% GC-100, Day 4): 21%; % lysyl oxidase (lysyl oxidase; Group IV pre- & post-treatment, 0.5% GC-100, Week 2): 30.1%; % lysyl oxidase (lysyl oxidase; Group IV pre- & post-treatment, 0.5% GC-100, Week 3): 42.4%; % lysyl oxidase (lysyl oxidase; Group IV pre- & post-treatment, 0.5% GC-100, Week 4): 52.8%; % lysyl oxidase (lysyl oxidase; Group IV pre- & post-treatment, 1% GC-100, Day 4): 47.2%; % lysyl oxidase (lysyl oxidase; Group IV pre- & post-treatment, 1% GC-100, Week 2): 50.5%; % lysyl oxidase (lysyl oxidase; Group IV pre- & post-treatment, 1% GC-100, Week 3): 58.8%; % lysyl oxidase (lysyl oxidase; Group IV pre- & post-treatment, 1% GC-100, Week 4): 62.7%
